# From patent US12427151B2, “Compositions and method of treating cancer” (The Regents of the University of California, priority 2017, dated 2025)
# What was measured:
# P. acnes ATCC6919 = assay: MBC determination; type: cell-based, Propionibacterium acnes; conditions: Cutibacterium acnes, 3-log reduction, 24 hour, 37° C., half strength MHB in PBS
# [1] = tested on: Pam212 squamous cell carcinoma; assay: Cell proliferation assay (BrdU incorporation); type: cell-based, mouse; conditions: Pam212, 4-hr incubation
# Experimental: (§1) (a-b) Selective antiproliferative activity of 6-HAP against Pam212 squamous cell carcinoma, but not against normal keratinocytes. BrdU incorporation into Pam212 cells (b) or NHEKs (b) after 4-hr or 24-hr incubation, respectively, in suitable media containing indicated concentrations of 6-HAP or mitomycin C (10 μg/mL) (a). (c) Expression of mARC1 and mARC2 in NHEKs, squamous cell carcinoma (Pam212), melanoma (B16F10) and lymphoma cell lines (L5178). To compare relative expression level in each cells, data was shown as relative to GAPDH expression. (d) Expression of mARC1 and mARC2 in NHEKs treated with control siRNA, mARCI siRNA and mARC2 siRNA. (e) Effect of gene silencing with mARC1 and mARC2 siRNA on sensitivity to 6-HAP in NHEKs. NHEKs treated with each siRNA were incubated for 48 hrs and then incubated with 10 μg/mL of 6-HAP for 24 hrs.
# Cell culture and cell proliferation assay. B16F10 mouse melanoma, Pam212, L5178 and YAC-1 mouse […] cell lines were obtained from American Type Culture Collection. […] After 4-hr (tumor cell lines) or 24-hr (NHEK) incubation with 6-HAP, proliferative activity of cells was colorimetrically determined by monitoring BrdU incorporation with Cell Proliferation kit according to the manual (Roche).
# [2] = tested on: NHEKs treated with mARC1 and mARC2 siRNA; assay: Gene silencing of mARCs with siRNA, sensitivity to 6-HAP; type: cell-based, human; conditions: 6-HAP 10 μg/mL for 24 hrs, BrdU incorporation
# Experimental: as §1
# Gene silencing of mARCs with siRNA. NHEK was cultured in EpiLife® media containing pre-designed siRNA for mARC1 or mARC2 (Thermo Fisher, Waltham, MA), and RNAiMAX® reagent for 24 hrs. Cells were maintained in EpiLife for 72 hrs, and incubated with 6-HAP (10 μg/mL) for 24 hrs. Anti-proliferative activity of 6-HAP was determined by measuring BrdU incorporation as described above.
# In mammalian cells, mitochondrial […] reducing components (mARC) 1 and 2 have shown to be capable of reducing N-hydroxylated nucleobase analogs to canonical nucleobases. […]
# GAS NZ131 = assay: MBC determination; type: cell-based, group A Streptococcus; conditions: Streptococcus, 3-log reduction of viable bacteria after 24 hour incubation at 37° C. in half strength MHB in PBS
# Experimental: To determine MBC, bacteria were cultured in TSB (Staphylococcus), THB (Streptococcus) or Nutrient broth (P. aeruginosa and E. coli) by reaching exponential phase (OD600=0.5-0.8). […] After incubation, the number of viable bacteria was measured by counting CFU after spreading 10-fold serial dilutions of bacteria on suitable agar plates. MBC was determined as a 3-log reduction (99.9%) of viable bacteria after 24 hour incubation.
# Antimicrobial activity of 6-HAP in vitro. To examine the specificity of 6-HAP for various bacteria, minimal bactericidal concentrations (MBCs) were determined according to dose-dependent killing curves at 24 hrs of incubation in vitro (Table 1). 6-HAP killed or suppressed growth of several major skin pathogens including GAS (NZ131), group B Streptococcus (GBS) (DK23), methicillin-sensitive S. aureus (ATCC35556), methicillin-resistant S. aureus (MRSA) strains (USA300 and Sanger252), Pseudomonas aeruginosa (P. aeruginosa) (ATCC14213) in vitro. […] S. epidermidis (ATCC12228) was also resistant to 6-HAP.
smiles,measurement,setting,value
"ONc1ncnc2nc[nH]c12 [6-HAP, 6-N-hydroxyaminopurine]",MBC,P. acnes ATCC6919,> 100 µg/mL
same,BrdU incorporation,[1],inhibited
same,cellular sensitivity to 6-HAP after mARC1 and mARC2 gene silencing,[2],increased cellular sensitivity
same,MBC,GAS NZ131,0.156 µg/mL
